Experimental data reported in US11840686B2, “Modulation of prekallikrein (PKK) expression” (Ionis Pharmaceuticals, Inc., priority 2013, dated 2023).
Strand notation (5' to 3'): a small letter for the sugar, then the base; units joined by * are phosphorothioate-linked, units joined directly phosphodiester-linked; [ ] holds rarer units or linkages, { } end groups; capitals alone tell only the bases. e = 2'-O-(2-methoxyethyl) (MOE); [5mC] = 5-methylcytosine; d = 2'-deoxy (DNA)

Tests used:
human PKK mRNA [1] = assay: Antisense inhibition of human PKK mRNA in HepaRG cells, 5,000 nM (Example 2); type: cell-based; conditions: approx. 24 hours
In short: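 qRT-PCR (RTS3454) read-out, RIBOGREEN-normalized; % inhibition vs untreated cells. HepaRG, 20,000 cells/well, electroporation, 5,000 nM ASO, ~24 h.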

human PKK mRNA [2] = assay: Dose-dependent antisense inhibition of human PKK in HepaRG cells, 0.19-5.00 uM (Example 5); type: cell-based
In short: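 PKK mRNA knockdown was measured by real-time PCR (primer probe set RTS3454) about 16 h after electroporating 20,000 HepaRG cells per well with oligonucleotide at four doses from 0.19 to 5.00 μM. Levels were adjusted to RIBOGREEN-measured total RNA, and IC50 values were calculated.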

[3] = Table 9 experiment, HepaRG cells, 20,000 cells per well, electroporation with 5,000 nM antisense oligonucleotide, PKK mRNA by RT-PCR (RTS3454), relative to untreated control cells
[4] = Table 10 experiment, HepaRG cells, 20,000 cells per well, electroporation with 5,000 nM antisense oligonucleotide, PKK mRNA by RT-PCR (RTS3454), relative to untreated control cells
[5] = HepaRG cells, electroporation, approximately 16 hours, Table 39
[6] = HepaRG cells, electroporation, approximately 16 hours, Table 36
[7] = Table 34, HepaRG, electroporation, ~16 h
[8] = Table 34, PKK mRNA, HepaRG, electroporation, ~16 h
[9] = HepaRG cells, electroporation, approximately 16 hours, Table 37
[10] = HepaRG cells, electroporation, 5,000 nM antisense oligonucleotide, primer probe set RTS3454, relative to untreated control cells, Table 11
[11] = HepaRG cells, electroporation, approximately 16 hours, Table 40
[12] = HepaRG cells, electroporation, approximately 16 hours, Table 38

Question: “547453 (antisense eT*e[5mC]*eA*eT*eG*dA*dT*dT*d[5mC]*d[5mC]*d[5mC]*dT*dT*d[5mC]*dT*eG*eA*eG*eA*e[5mC]) [compound 547453]” was tested. Which “% inhibition” value (human PKK mRNA [1]; [3]) did it give?
Answer: The value was 81%.

Question: What about the “% inhibition” value (human PKK mRNA [1]; [4]) of the same substance?
Answer: Its value is 81%.

Question: What about the “percent inhibition of PKK at 0.19 μM” value (human PKK mRNA [2]; [5]) of the same substance?
Answer: The value was 25%.

Question: What about the “percent inhibition of PKK at 0.56 μM” value (human PKK mRNA [2]; [5]) of the same substance?
Answer: The value was 40%.

Question: And the “percent inhibition of PKK at 1.67 μM” value (human PKK mRNA [2]; [5])?
Answer: Its value is 54%.

Question: And the “percent inhibition of PKK at 5.00 μM” value (human PKK mRNA [2]; [5])?
Answer: Its value is 92%.

Question: And the IC50 (human PKK mRNA [2]; 4 point dose response, HepaRG cells, Table 39)?
Answer: The IC50 was 800 nM.

Question: “547454 (antisense eT*eA*eT*e[5mC]*eA*dT*dG*dA*dT*dT*d[5mC]*d[5mC]*d[5mC]*dT*dT*e[5mC]*eT*eG*eA*eG) [compound 547454]” was tested. Which “% inhibition” value (human PKK mRNA [1]; [3]) did it give?
Answer: The value was 92%.

Question: What about the “% inhibition” value (human PKK mRNA [1]; [4]) of the same substance?
Answer: The value was 78%.

Question: What about the “percent inhibition of PKK at 0.19 μM” value (human PKK mRNA [2]; [6]) of the same substance?
Answer: Its value is 19%.

Question: What about the “percent inhibition of PKK at 0.56 μM” value (human PKK mRNA [2]; [6]) of the same substance?
Answer: Its value is 40%.

Question: And the “percent inhibition of PKK at 1.67 μM” value (human PKK mRNA [2]; [6])?
Answer: The value was 58%.

Question: What about the “percent inhibition of PKK at 5.00 μM” value (human PKK mRNA [2]; [6]) of the same substance?
Answer: The value was 92%.

Question: What about the IC50 (human PKK mRNA [2]; 4 point dose response, HepaRG cells, Table 36) of the same substance?
Answer: Its IC50 is 900 nM.

Question: With “547456 (antisense eG*e[5mC]*eG*eA*eT*dA*dT*d[5mC]*dA*dT*dG*dA*dT*dT*d[5mC]*e[5mC]*e[5mC]*eT*eT*e[5mC]) [compound 547456]” as the substance, how does the “% inhibition” value (human PKK mRNA [1]; [3]) read?
Answer: The value was 89%.

Question: And the “% inhibition” value (human PKK mRNA [1]; [4])?
Answer: Its value is 96%.

Question: And the “percent inhibition of PKK at 0.19 μM” value (human PKK mRNA [2]; [7])?
Answer: Its value is 12%.

Question: And the “percent inhibition of PKK at 0.56 μM” value (human PKK mRNA [2]; [7])?
Answer: Its value is 67%.

Question: What about the “percent inhibition of PKK at 1.67 μM” value (human PKK mRNA [2]; [7]) of the same substance?
Answer: The value was 66%.

Question: And the “percent inhibition of PKK at 5.00 μM” value (human PKK mRNA [2]; [7])?
Answer: Its value is 80%.

Question: What about the IC50 (human PKK mRNA [2]; [8]) of the same substance?
Answer: Its IC50 is 1000 nM.

Question: Which “% inhibition” value (human PKK mRNA [1]; [3]) does the source give for “547464 (antisense eG*e[5mC]*eT*eT*eG*dT*dG*dT*d[5mC]*dA*d[5mC]*d[5mC]*dT*dT*dT*eG*eG*eA*eA*eG) [compound 547464]” here?
Answer: The value was 95%.

Question: What about the “% inhibition” value (human PKK mRNA [1]; [4]) of the same substance?
Answer: The value was 84%.

Question: And the “percent inhibition of PKK at 0.19 μM” value (human PKK mRNA [2]; [7])?
Answer: Its value is 21%.

Question: And the “percent inhibition of PKK at 0.56 μM” value (human PKK mRNA [2]; [7])?
Answer: Its value is 52%.

Question: And the “percent inhibition of PKK at 1.67 μM” value (human PKK mRNA [2]; [7])?
Answer: The value was 67%.

Question: What about the “percent inhibition of PKK at 5.00 μM” value (human PKK mRNA [2]; [7]) of the same substance?
Answer: Its value is 97%.

Question: What about the IC50 (human PKK mRNA [2]; [8]) of the same substance?
Answer: Its IC50 is 600 nM.

Question: “547483 (antisense eT*e[5mC]*e[5mC]*e[5mC]*e[5mC]*d[5mC]*dT*dT*d[5mC]*dT*dT*dT*dA*dT*dA*eG*e[5mC]*e[5mC]*eA*eG) [compound 547483]” was tested. Which “% inhibition” value (human PKK mRNA [1]; [3]) did it give?
Answer: Its value is 71%.

Question: And the “% inhibition” value (human PKK mRNA [1]; [4])?
Answer: Its value is 77%.

Question: And the “percent inhibition of PKK at 0.19 μM” value (human PKK mRNA [2]; [9])?
Answer: The value was 0%.

Question: And the “percent inhibition of PKK at 0.56 μM” value (human PKK mRNA [2]; [9])?
Answer: The value was 9%.

Question: What about the “percent inhibition of PKK at 1.67 μM” value (human PKK mRNA [2]; [9]) of the same substance?
Answer: The value was 49%.

Question: And the “percent inhibition of PKK at 5.00 μM” value (human PKK mRNA [2]; [9])?
Answer: The value was 71%.

Question: And the IC50 (human PKK mRNA [2]; 4 point dose response, HepaRG cells, Table 37)?
Answer: Its IC50 is 2100 nM.

Question: Which results are given for “547493 (antisense eT*e[5mC]*eT*eG*eA*dG*d[5mC]*dT*dT*dT*dT*d[5mC]*d[5mC]*dA*dT*e[5mC]*eA*e[5mC]*eT*eG) [compound 547493]”?
Answer: % inhibition (human PKK mRNA [1]; [10]): 72%; percent inhibition of PKK at 0.19 μM (human PKK mRNA [2]; [11]): 0%; percent inhibition of PKK at 0.56 μM (human PKK mRNA [2]; [11]): 26%; percent inhibition of PKK at 1.67 μM (human PKK mRNA [2]; [11]): 64%; percent inhibition of PKK at 5.00 μM (human PKK mRNA [2]; [11]): 77%; IC50 (human PKK mRNA [2]; 4 point dose response, HepaRG cells, Table 40): 1300 nM

Question: Which results are given for “547514 (antisense eA*eG*eA*eT*eG*d[5mC]*d[5mC]*dA*d[5mC]*dT*d[5mC]*dT*d[5mC]*d[5mC]*dA*eT*eG*e[5mC]*eT*eT) [compound 547514]”?
Answer: % inhibition (human PKK mRNA [1]; [10]): 85%; percent inhibition of PKK at 0.19 μM (human PKK mRNA [2]; [12]): 18%; percent inhibition of PKK at 0.56 μM (human PKK mRNA [2]; [12]): 8%; percent inhibition of PKK at 1.67 μM (human PKK mRNA [2]; [12]): 51%; percent inhibition of PKK at 5.00 μM (human PKK mRNA [2]; [12]): 80%; IC50 (human PKK mRNA [2]; 4 point dose response, HepaRG cells, Table 38): 1900 nM
